Marks after values point to notes of the source that are not given here.
Assay: Solubility of active agents in surfactants (saturation, HPLC)
Type: physicochemical
Details: 40° C., mean of three ± SD unless a (single) or b (duplicate); for Solubility Irinotecan HCl: irinotecan HCl in the surfactant; for Solubility Irinotecan base: irinotecan base in the surfactant; for Solubility Paclitaxel: paclitaxel in the surfactant
Experimental: In order for the surfactants to be useful as components of the delivery system, it is important to be able to dissolve biologically active agents in the surfactant or in the water. Table 3 illustrates that the surfactants are useful for dissolving three pharmaceutical compounds that may potentially be delivered using the invention. Solubility was determined by saturation of the surfactant with solid drug at 40° C. until saturation is achieved. Drug level was determined by reverse phase HPLC. Values given are the mean of three separate samples±standard deviation, unless denoted otherwise.

Compound	Solubility Irinotecan HCl	Solubility Irinotecan base	Solubility Paclitaxel
CC(C)CCCC(C)CCCC(C)CCCC(C)CCN(CCO)C(N)=O (centres unmarked) [1-(3,7,11,15-tetramethyl-hexadecyl)-1-(2-hydroxyethyl)urea]	0.43 ± 0.20 mg/g	0.35 ± 0.001 mg/g	0.87 ± 0.18 mg/g
CC(C)CCCC(C)CCCC(C)CCCC(C)CCNC(=O)NCCO (centres unmarked) [1-(3,7,11,15-tetramethyl-hexadecyl)-3-(2-hydroxyethyl)urea]	4.36 ± 0.30 mg/g	0.94 ± 0.02 mg/g	5.67 ± 1.64 mg/g
CC(C)CCCC(C)CCCC(C)CCCC(C)CCOC(=O)C(O)CO (centres unmarked) [2,3-Dihydroxypropionic acid 3,7,11,15-tetramethyl-hexadecyl ester]	4.33 ± 0.37 mg/g	64.54 ± 4.65 mg/g	4.83 ± 0.83 mg/g
CC(C)CCCC(C)CCCC(C)CCOC(=O)C(O)CO (centres unmarked) [2,3-Dihydroxypropionic acid 3,7,11-trimethyl-dodecyl ester]	4.58^a mg/g	3.92^b mg/g	7.25^b mg/g
CCCCCCCCC=CCCCCCCCCOC(=O)C(O)CO (centres unmarked) [2,3-Dihydroxypropionic acid octadec-9-enyl ester]	9.69 ± 0.74 mg/g	35.66 ± 1.26 mg/g	8.43 ± 0.23 mg/g
CC(C)CCCC(C)CCCC(C)CCCC(C)CCNC(N)=O (centres unmarked) [3,7,11,15-Tetramethyl-hexadecyl urea]	1.63 ± 0.64 mg/g	0.44 ± 0.11 mg/g	7.85 ± 1.93 mg/g
CC(C)CCCC(C)CCCC(C)CCCC(C)CC(=O)OCC(O)CO (centres unmarked) [3,7,11,15-tetramethyl-hexadecanoic acid 1-glycerol ester]		6.22^a mg/g	6.66^a mg/g
CC(C)CCCC(C)CCCC(C)CCNC(N)=O (centres unmarked) [3,7,11-Trimethyl-dodecyl urea]	33.83 ± 5.98 mg/g	3.76 ± 0.45 mg/g	34.65 ± 2.34 mg/g

From patent US20070108405A1, “Compositions and methods for delivery of biologically active agents” (FH FAULDING & CO., LTD., priority 2003, published 2007)
